This assay concerns the target human mGluR5 (Homo sapiens, UniProt P41594). Nature of the assay: Cell-based functional Ca2+ mobilization assay, potentiation of glutamate EC20 response (H10H cell-line). The following applies: H10H cell-line expressing recombinant human mGluR5; for Emax / Emax (%): in presence of glutamate EC20, normalized to maximal glutamate response; for EC50 / pEC50: potentiation in presence of glutamate EC20. How it is done:
Human embryonic kidney (HEK) cells transfected with rat mGluR5 were plated in clear bottom assay plates for assay in a Functional Drug Screening System (FDSS). In the alternative assay, HEK cells transfected with human mGluR5 were plated for assay in the FDSS. In some cases the HEK cells transfected with human mGluR5 are the H10H cell line. Alternatively, the HEK cells transfected with human mGluR5 are the H12H cell line. […] The cells were loaded with a Ca^2+-sensitive fluorescent dye (e.g., Fluo-4), and the plates were washed and placed in the FDSS instrument. After establishment of a fluorescence baseline for about three seconds, the compounds of the present invention were added to the cells, and the response in cells was measured. Five minutes later, an mGluR5 agonist (e.g., glutamate, 3,5-dihydroxyphenylglycine, or quisqualate) was added to the cells, and the response of the cells was measured. Potentiation of the agonist response of mGluR5 by the compounds in the present invention was observed as an increase in response to non-maximal concentrations of agonist (here, glutamate) in the presence of compound compared to the response to agonist in the absence of compound.
The above described assay can be operated in two modes. In the first mode, a range of concentrations of the present compounds were added to cells, followed by a single fixed concentration of agonist. If a compound acted as a potentiator, an EC50 value for potentiation and a maximum extent of potentiation by the compound at this concentration of agonist was determined by non-linear curve fitting. In the second mode, several fixed concentrations of the present compounds were added to various wells on a plate, followed by a range of concentrations of agonist for each concentration of present compound; the EC50 values for the agonist at each concentration of compound were determined by non-linear curve fitting. A decrease in the EC50 value of the agonist with increasing concentrations of the present compounds (a leftward shift of the agonist concentration-response curve) is an indication of the degree of mGluR5 potentiation at a given concentration of the present compound. An increase in the EC50 value of the agonist with increasing concentrations of the present compounds (a rightward shift of the agonist concentration-response curve) is an indication of the degree of mGluR5 antagonism at a given concentration of the present compound. The second mode also indicates whether the present compounds also affect the maximum response to mGluR5 to agonists.
Human mGluR5a cDNA in pCMV6-XL6 mammalian expression plasmid was purchased from OriGene Technologies, Inc. (catalogue number SC326357) and subcloned into pcDNA3.1(−). Human embryonic kidney (HEK) 293A cells were then transfected with human mGluR5a pcDNA3.1(−) using LipofectAmine 2000 (Invitrogen) and monoclones were selected and tested for functional response using a Ca^2+ mobilization assay. Monoclones were named for the species (“H” for human) plus the location on the plate (e.g. “10H”).
HEK cells transfected with the human mGluR5a receptor were plated at 15,000 cells/well in clear-bottomed poly-D-lysine-coated assay plates (BD Falcon) in glutamate-glutamine-free growth medium and incubated overnight at 37° C. and 5% CO2. The cell-line used to obtain the data reported herein was the H10H cell-line expressing the human mGluR5 receptor. Although the H10H cell-line was used to obtain the data shown herein, the H12H cell-line expressing the human mGluR5 receptor can also be used in these assays. The following day, the growth medium was removed and the cells were washed with assay buffer containing 1× Hank's balanced salt solution (Invitrogen, Carlsbad, Calif.), 20 mM HEPES, 2.5 mM probenecid, pH 7.4 and left with 20 μL of this reagent. Following this step, the cells were loaded with calcium indicator dye, fluo-4 AM, to a final concentration of 2 μM and incubated for 40-45 min at 37° C. […]

Data on 46 compounds can be found in patent US9090632B2, “Bicyclic oxazole and thiazole compounds and their use as allosteric modulators of mGluR5 receptors” (Vanderbilt University, priority 2010, dated 2015).

Chain of human mGluR5 (P41594 21-1180 isoform P41594-2 limits assumed): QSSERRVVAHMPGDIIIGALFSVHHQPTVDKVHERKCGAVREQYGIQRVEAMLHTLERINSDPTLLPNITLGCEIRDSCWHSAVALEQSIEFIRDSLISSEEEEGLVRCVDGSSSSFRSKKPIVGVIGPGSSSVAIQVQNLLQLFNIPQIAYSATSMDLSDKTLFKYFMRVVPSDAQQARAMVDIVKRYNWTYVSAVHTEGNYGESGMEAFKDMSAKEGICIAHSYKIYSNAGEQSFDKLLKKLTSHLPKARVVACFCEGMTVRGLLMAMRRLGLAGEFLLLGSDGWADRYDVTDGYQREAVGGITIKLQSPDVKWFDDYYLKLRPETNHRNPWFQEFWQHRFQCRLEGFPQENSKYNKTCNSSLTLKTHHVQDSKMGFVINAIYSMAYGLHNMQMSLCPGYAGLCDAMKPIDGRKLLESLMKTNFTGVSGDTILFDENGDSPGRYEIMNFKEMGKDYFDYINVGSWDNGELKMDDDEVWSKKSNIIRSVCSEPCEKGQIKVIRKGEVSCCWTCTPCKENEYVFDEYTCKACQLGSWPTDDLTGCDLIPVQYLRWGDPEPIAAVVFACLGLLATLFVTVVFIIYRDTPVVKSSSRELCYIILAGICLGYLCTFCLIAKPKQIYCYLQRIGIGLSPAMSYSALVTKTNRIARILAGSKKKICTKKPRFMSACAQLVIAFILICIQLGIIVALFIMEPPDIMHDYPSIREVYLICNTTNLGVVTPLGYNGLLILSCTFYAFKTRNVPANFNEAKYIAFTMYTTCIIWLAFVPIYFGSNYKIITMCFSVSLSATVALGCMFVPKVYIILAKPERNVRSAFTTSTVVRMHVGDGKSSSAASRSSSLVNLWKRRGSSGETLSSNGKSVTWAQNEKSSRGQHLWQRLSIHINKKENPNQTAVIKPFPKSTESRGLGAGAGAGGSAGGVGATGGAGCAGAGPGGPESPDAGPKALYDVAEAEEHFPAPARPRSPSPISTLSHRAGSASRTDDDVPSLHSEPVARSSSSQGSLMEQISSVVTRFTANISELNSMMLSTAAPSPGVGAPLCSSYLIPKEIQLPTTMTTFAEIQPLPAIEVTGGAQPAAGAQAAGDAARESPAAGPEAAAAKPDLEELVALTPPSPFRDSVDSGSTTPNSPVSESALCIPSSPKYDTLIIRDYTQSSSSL

Turning to `CC(C)(C)[C@H](N)C(=O)N1CCc2nc(COc3ccccc3)oc2C1` [Example B54], the Emax was found to be 24% and the EC50 is 4170 nM. Consider `CC(C)(C)OCC(=O)N1CCc2nc(COc3ccccc3)oc2C1` [Example B55], for which the Emax stood at 14%. `O=C(c1cn[nH]c1)N1CCc2nc(COc3ccccc3)oc2C1` [Example B56]: the “Emax (%)” value was determined as 50% and the negative logarithm of the EC50 (pEC50) is recorded as under 5. Turning to `O=C(c1ccc(Cl)o1)N1CCc2nc(COc3ccccc3)oc2C1` [Example B57], the “Emax (%)” value came out at 57% and the pEC50 came out at 7.14.

With `O=C(c1ccc[nH]1)N1CCc2nc(COc3ccccc3)oc2C1` [Example B58], the Emax is 31% and the EC50 was 603 nM. In the same order, the values of `O=C(c1cnco1)N1CCc2nc(COc3ccccc3)oc2C1` [Example B59] are 40.5% and 2950 nM. On to `O=C(c1ncco1)N1CCc2nc(COc3ccccc3)oc2C1` [Example B60], for which the Emax was 39.5% and the EC50 is 2000 nM.

With `Cc1ccc(C(=O)N2CCc3nc(COc4ccccc4)oc3C2)o1` [Example B61], the Emax came out at 52.5% and the 50% effective concentration (EC50) was 302 nM. For `CC(C)(C#N)C(=O)N1CCc2nc(COc3ccccc3)oc2C1` [Example B62], in that order: 34% and 339 nM. Turning to `O=C(CCc1ccccc1)N1CCc2nc(COc3ccccc3)oc2C1` [Example B64], the Emax amounted to 59% and the EC50 is 813 nM. On to `Cc1cccc(OCc2nc3c(o2)CN(C(=O)c2ccc(F)cc2)CC3)c1` [Example B66], for which the maximal response (Emax) amounted to 63% and the EC50 was 1200 nM.

Regarding `O=C(c1ccc(F)cc1)N1CCc2nc(COc3ccccn3)oc2C1` [Example B68], the maximum response (Emax) is 71% and the EC50 is 2400 nM.

As to `O=C(c1ccc(F)cc1)N1CCc2nc(COc3cccc(Cl)c3)oc2C1` [Example B69], the “Emax (%)” value was 72% and the pEC50 was 5.85. In the same order, the values of `O=C(c1ccc(F)cc1)N1CCc2nc(COc3ccncc3)oc2C1` [Example B73] are 73% and 5.78. Take `O=C(c1ncccc1Cl)N1CCc2nc(COc3ccccc3)oc2C1` [Example B74]: the Emax worked out at 57% and the EC50 is over 10000 nM. As for `O=C(N1CCc2nc(COc3ccccc3)oc2C1)C1(c2ccccc2)CC1` [Example B77], the “Emax (%)” value was 62% and the pEC50 worked out at 6.00. With `O=C(COc1ccccc1)N1CCc2nc(COc3ccccc3)oc2C1` [Example B80], the Emax stood at 60% and the EC50 was 1910 nM.

In the case of `CC(Oc1ccccc1)C(=O)N1CCc2nc(COc3ccccc3)oc2C1` (stereo not shown) [Example B81], the Emax was found to be 63% and the EC50 was 1910 nM. Turning to `O=C(C1CCc2cc(F)ccc2O1)N1CCc2nc(COc3ccccc3)oc2C1` (stereo not shown) [Example B82], the “Emax (%)” value is recorded as 62% and the pEC50 came to 5.7. As to `N#Cc1cc(C(=O)N2CCc3nc(COc4ccccc4)oc3C2)ccn1` [Example B87], the “Emax (%)” value was 72% and the pEC50 is on record as 5.89. In the same order, the values of `N#Cc1ccc(C(=O)N2CCc3nc(COc4ccccc4)oc3C2)cc1F` [Example B90] are 58% and 5.66.

Consider `O=C(c1ccc2nccnc2c1)N1CCc2nc(COc3ccccc3)oc2C1` [Example B91], for which the “Emax (%)” value amounted to 59% and the pEC50 came out at 5.63.

On to `N#Cc1cc(F)cc(C(=O)N2CCc3nc(COc4cccc(F)c4)oc3C2)c1` [Example B92], for which the “Emax (%)” value amounted to 52% and the pEC50 is 6.73. In the case of `O=C(c1cnc2ccccc2n1)N1CCc2nc(COc3ccccc3)oc2C1` [Example B93], the “Emax (%)” value was 52% and the negative-log EC50 (pEC50) is 5.73. Regarding `O=C(c1cccc(F)c1)N1CCc2nc(COc3ccc(F)cc3)oc2C1` [Example B100], the Emax was found to be 60.5% and the EC50 is 245 nM.

For the compound `COc1ccc(C(=O)N2CCc3nc(COc4ccccc4)oc3C2)s1` [Example B102], the “Emax (%)” value worked out at 66% and the pEC50 was 6.34.

As for `Cc1ccc(C(=O)N2CCc3nc(COc4ccccc4)oc3C2)n1C` [Example B103], the “Emax (%)” value was found to be 78% and the pEC50 is 6.44. With `COCc1ccc(C(=O)N2CCc3nc(COc4ccccc4)oc3C2)o1` [Example B104], the Emax came to 62% and the concentration giving a half-maximal response (EC50) is over 10000 nM. As for `O=C1CCC(C(=O)N2CCc3nc(COc4ccccc4)oc3C2)N1` (stereo not shown) [Example B105], the “Emax (%)” value was determined as 22% and the pEC50 is listed as under 4.52. In the case of `O=C(c1ccc(Br)o1)N1CCc2nc(COc3ccccc3)oc2C1` [Example B106], the Emax was 61% and the EC50 was 85.1 nM. In the same order, the values of `O=C(c1ccc(Cl)s1)N1CCc2nc(COc3ccccc3)oc2C1` [Example B109] are 73.5% and 66.1 nM.

For the compound `Cc1ccc(C(=O)N2CCc3nc(COc4ccccc4)oc3C2)s1` [Example B110], the “Emax (%)” value stood at 57% and the pEC50 was 6.70. As to `O=C(c1cc2ccccc2[nH]1)N1CCc2nc(COc3ccccc3)oc2C1` [Example B112], the “Emax (%)” value came out at 12% and the pEC50 is given as under 4.52. In the same order, the values of `Cn1ccc(Cl)c1C(=O)N1CCc2nc(COc3ccccc3)oc2C1` [Example B113] are 45% and 6.58. For `O=C(c1cc[nH]n1)N1CCc2nc(COc3ccccc3)oc2C1` [Example B115], in that order: 46% and under 5. Regarding `O=C(CC(F)(F)F)N1CCc2nc(COc3ccccc3)oc2C1` [Example B116], the maximal effect (Emax) was found to be 33% and the EC50 is over 10000 nM.

Take `O=C(c1c[nH]c2ccccc12)N1CCc2nc(COc3ccccc3)oc2C1` [Example B117]: the “Emax (%)” value was 69% and the pEC50 is reported as 6.60.

Consider `O=C(c1cnc(C(F)(F)F)nc1)N1CCc2nc(COc3ccccc3)oc2C1` [Example B118], for which the “Emax (%)” value was 37% and the pEC50 was under 5. For `Cc1noc(C(=O)N2CCc3nc(COc4ccccc4)oc3C2)n1` [Example B119], the Emax worked out at 22% and the EC50 is over 10000 nM.

`O=C(c1cc2ccccc2o1)N1CCc2nc(COc3ccccc3)oc2C1` [Example B120]: the maximal effect (Emax) is 67% and the EC50 was over 10000 nM.

In the case of `Cc1ccoc1C(=O)N1CCc2nc(COc3ccccc3)oc2C1` [Example B121], the “Emax (%)” value is reported as 51% and the pEC50 was determined as 6.72. In the same order, the values of `O=C(c1ccc(C(F)(F)F)o1)N1CCc2nc(COc3ccccc3)oc2C1` [Example B122] are 68% and 6.67. For `O=C(c1cnn[nH]1)N1CCc2nc(COc3ccccc3)oc2C1` [Example B125], in that order: 45% and under 5.

Turning to `O=C(c1n[nH]c2ccccc12)N1CCc2nc(COc3ccccc3)oc2C1` [Example B126], the Emax stood at 72% and the EC50 was 389 nM.

As for `O=C(c1ccc(F)cc1)N1CCc2nc(COc3ccc(C(F)(F)F)cc3)oc2C1` [Example B128], the “Emax (%)” value is 25% and the pEC50 is under 4.52.

Take `O=C(c1ccc(F)cc1)N1CCc2nc(COc3ccc(Br)cc3)oc2C1` [Example B129]: the maximum response (Emax) was determined as 27% and the EC50 is over 30200 nM.

What is called Emax is the maximal effect, on the per cent scale that the assay sets. Broadly, the EC50 is the concentration giving half of the maximal effect. As usually defined, the pEC50 is −log10 of the EC50, conventionally taken in molar units.
